Assays:
[1] = target: T1, ABL1(T315I)-phosphorylated (Homo sapiens, UniProt P00519, T315I); assay: KINOMEscan panel screen; assay type: binding; conditions: read-out: Percent Control(%)
T1 construct: purchased DiscoveRx KINOMEscan (Ambit Biosciences)

CAMK1D = target: T2, CAMK1D (Homo sapiens, UniProt Q8IU85); assay: KINOMEscan panel screen; assay type: binding; conditions: read-out: Percent Control(%)
T2 construct: purchased DiscoveRx KINOMEscan (Ambit Biosciences)

CLK1 = target: T3, CLK1 (Homo sapiens, UniProt P49759); assay: KINOMEscan panel screen; assay type: binding; conditions: read-out: Percent Control(%)
T3 construct: purchased DiscoveRx KINOMEscan (Ambit Biosciences)

DYRK2 = target: T4, DYRK2 (Homo sapiens, UniProt Q92630); assay: KINOMEscan panel screen; assay type: binding; conditions: read-out: Percent Control(%)
T4 construct: purchased DiscoveRx KINOMEscan (Ambit Biosciences)
T4 sequence (Q92630 whole entry): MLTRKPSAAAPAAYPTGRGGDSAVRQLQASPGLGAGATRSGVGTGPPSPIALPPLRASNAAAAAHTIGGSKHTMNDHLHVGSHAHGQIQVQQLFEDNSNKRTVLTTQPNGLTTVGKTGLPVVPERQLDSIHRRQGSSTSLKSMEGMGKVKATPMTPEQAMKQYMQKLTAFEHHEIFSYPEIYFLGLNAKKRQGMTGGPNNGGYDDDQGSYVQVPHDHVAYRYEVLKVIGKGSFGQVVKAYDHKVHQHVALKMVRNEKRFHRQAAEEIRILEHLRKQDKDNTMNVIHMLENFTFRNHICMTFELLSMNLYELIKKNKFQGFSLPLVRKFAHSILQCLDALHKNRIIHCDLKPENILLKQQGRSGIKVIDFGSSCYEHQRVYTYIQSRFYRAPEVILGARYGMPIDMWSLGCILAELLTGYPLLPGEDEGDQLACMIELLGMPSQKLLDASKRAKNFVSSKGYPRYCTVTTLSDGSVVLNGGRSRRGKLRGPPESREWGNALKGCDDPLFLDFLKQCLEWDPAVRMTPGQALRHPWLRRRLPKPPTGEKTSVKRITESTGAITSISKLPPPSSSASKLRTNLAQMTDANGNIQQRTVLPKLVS

EGFR(L861Q) = target: T5, EGFR(L861Q) (Homo sapiens, UniProt P00533, L861Q); assay: KINOMEscan panel screen; assay type: binding; conditions: read-out: Percent Control(%)
T5 construct: purchased DiscoveRx KINOMEscan (Ambit Biosciences)

EPHA8 = target: T6, EPHA8 (Homo sapiens, UniProt P29322); assay: KINOMEscan panel screen; assay type: binding; conditions: read-out: Percent Control(%)
T6 construct: purchased DiscoveRx KINOMEscan (Ambit Biosciences)

MAPKAPK2 = target: T7, MAPKAPK2 (Homo sapiens, UniProt P49137); assay: KINOMEscan panel screen; assay type: binding; conditions: read-out: Percent Control(%)
T7 construct: purchased DiscoveRx KINOMEscan (Ambit Biosciences)
T7 sequence (P49137 whole entry): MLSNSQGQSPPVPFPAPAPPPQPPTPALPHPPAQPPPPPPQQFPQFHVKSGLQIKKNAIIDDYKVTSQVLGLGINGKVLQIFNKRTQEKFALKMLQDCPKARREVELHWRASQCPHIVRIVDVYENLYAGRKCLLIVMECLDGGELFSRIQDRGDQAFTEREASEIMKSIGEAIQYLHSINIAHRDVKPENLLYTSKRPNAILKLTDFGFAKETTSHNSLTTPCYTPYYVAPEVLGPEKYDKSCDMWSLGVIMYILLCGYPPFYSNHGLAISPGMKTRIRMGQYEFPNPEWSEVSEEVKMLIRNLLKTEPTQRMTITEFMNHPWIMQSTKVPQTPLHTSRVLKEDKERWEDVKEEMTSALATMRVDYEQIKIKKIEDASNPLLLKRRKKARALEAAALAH

PAK7 = target: T8, PAK7 (Homo sapiens, UniProt Q9P286); assay: KINOMEscan panel screen; assay type: binding; conditions: read-out: Percent Control(%)
T8 construct: purchased DiscoveRx KINOMEscan (Ambit Biosciences)

PDGFRB = target: T9, PDGFRB (Homo sapiens, UniProt P09619); assay: KINOMEscan panel screen; assay type: binding; conditions: read-out: Percent Control(%)
T9 construct: purchased DiscoveRx KINOMEscan (Ambit Biosciences)

PFTAIRE2 = target: T10, PFTAIRE2 (Homo sapiens, UniProt Q96Q40); assay: KINOMEscan panel screen; assay type: binding; conditions: read-out: Percent Control(%)
T10 construct: purchased DiscoveRx KINOMEscan (Ambit Biosciences)

PIK3CA(H1047Y) = target: T11, PIK3CA(H1047Y) (Homo sapiens, UniProt P42336, H1047Y); assay: KINOMEscan panel screen; assay type: binding; conditions: read-out: Percent Control(%)
T11 construct: purchased DiscoveRx KINOMEscan (Ambit Biosciences)

RIOK3 = target: T12, RIOK3 (Homo sapiens, UniProt O14730); assay: KINOMEscan panel screen; assay type: binding; conditions: read-out: Percent Control(%)
T12 construct: purchased DiscoveRx KINOMEscan (Ambit Biosciences)

RIPK2 = target: T13, RIPK2 (Homo sapiens, UniProt O43353); assay: KINOMEscan panel screen; assay type: binding; conditions: read-out: Percent Control(%)
T13 construct: purchased DiscoveRx KINOMEscan (Ambit Biosciences)
T13 sequence (O43353 whole entry): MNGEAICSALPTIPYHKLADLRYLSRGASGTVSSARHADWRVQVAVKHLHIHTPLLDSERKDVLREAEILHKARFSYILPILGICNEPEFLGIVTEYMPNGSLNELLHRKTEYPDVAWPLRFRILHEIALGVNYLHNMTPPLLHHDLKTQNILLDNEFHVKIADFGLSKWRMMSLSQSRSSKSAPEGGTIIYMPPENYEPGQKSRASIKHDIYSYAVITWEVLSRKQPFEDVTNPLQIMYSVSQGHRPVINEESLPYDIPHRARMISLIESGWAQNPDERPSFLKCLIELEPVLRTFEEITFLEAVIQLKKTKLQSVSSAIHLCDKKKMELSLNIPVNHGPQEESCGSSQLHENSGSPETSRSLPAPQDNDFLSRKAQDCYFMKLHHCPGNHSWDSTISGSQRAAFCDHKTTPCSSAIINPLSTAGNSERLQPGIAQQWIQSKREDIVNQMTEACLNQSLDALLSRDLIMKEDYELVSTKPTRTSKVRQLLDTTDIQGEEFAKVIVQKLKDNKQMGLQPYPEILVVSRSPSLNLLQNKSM

SGK = target: T14, SGK (Homo sapiens, UniProt O00141); assay: KINOMEscan panel screen; assay type: binding; conditions: read-out: Percent Control(%)
T14 construct: purchased DiscoveRx KINOMEscan (Ambit Biosciences)

STK36 = target: T15, STK36 (Homo sapiens, UniProt Q9NRP7); assay: KINOMEscan panel screen; assay type: binding; conditions: read-out: Percent Control(%)
T15 construct: purchased DiscoveRx KINOMEscan (Ambit Biosciences)

PDGFRβ = target: T16, PDGFRβ (Homo sapiens, UniProt P09619); assay: KINOMEscan kinase binding assay (Kd)
T16 construct: purchased Ambit Biosciences (KINOMEscan)

PLK2 = target: T17, PLK2 (Homo sapiens, UniProt Q9NYY3); assay: KINOMEscan kinase binding assay (Kd)
T17 construct: purchased DiscoveRx KINOMEscan (Ambit Biosciences)
T17 sequence (Q9NYY3 whole entry): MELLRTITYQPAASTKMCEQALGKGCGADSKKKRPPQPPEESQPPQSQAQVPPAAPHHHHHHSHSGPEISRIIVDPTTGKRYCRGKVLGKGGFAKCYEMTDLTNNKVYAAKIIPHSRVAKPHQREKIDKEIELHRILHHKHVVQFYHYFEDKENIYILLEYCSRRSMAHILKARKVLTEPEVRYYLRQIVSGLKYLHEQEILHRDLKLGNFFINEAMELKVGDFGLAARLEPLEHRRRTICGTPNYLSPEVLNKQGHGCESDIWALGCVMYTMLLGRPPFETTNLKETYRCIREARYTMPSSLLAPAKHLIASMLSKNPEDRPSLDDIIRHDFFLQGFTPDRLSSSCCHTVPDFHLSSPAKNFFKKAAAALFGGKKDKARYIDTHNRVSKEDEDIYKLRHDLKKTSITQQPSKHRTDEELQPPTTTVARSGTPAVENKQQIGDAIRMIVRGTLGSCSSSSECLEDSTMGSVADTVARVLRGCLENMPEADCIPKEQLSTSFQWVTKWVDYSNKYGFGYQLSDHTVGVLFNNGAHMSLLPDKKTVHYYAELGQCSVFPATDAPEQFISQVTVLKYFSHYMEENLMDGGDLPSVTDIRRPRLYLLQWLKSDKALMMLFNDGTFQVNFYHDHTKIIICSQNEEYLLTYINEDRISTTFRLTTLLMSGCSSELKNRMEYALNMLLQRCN

CHEK1 = target: T18, CHEK1 (Homo sapiens, UniProt O14757); assay: KINOMEscan kinase binding assay (Kd); conditions: Table S1
T18 construct: purchased DiscoveRx KINOMEscan (Ambit Biosciences)
T18 sequence (O14757 1-476): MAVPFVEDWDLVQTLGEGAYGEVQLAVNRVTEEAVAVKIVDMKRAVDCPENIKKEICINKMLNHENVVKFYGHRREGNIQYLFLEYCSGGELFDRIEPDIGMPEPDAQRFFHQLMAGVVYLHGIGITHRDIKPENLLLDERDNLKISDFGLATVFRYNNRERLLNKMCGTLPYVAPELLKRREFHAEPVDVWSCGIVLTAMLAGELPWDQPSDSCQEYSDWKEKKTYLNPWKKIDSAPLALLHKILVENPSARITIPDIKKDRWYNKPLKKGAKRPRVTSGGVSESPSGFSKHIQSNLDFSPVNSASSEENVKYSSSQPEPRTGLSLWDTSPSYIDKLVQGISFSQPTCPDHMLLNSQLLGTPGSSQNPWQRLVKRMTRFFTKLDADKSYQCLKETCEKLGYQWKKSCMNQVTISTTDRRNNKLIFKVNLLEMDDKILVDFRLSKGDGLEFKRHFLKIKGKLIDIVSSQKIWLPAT
Description: (§1) In vitro KINOMEscan kinase binding assays (Ambit Biosciences) were employed to determine the binding affinity (Kd) of compounds[41][42].
(§2) compound 1. The y have very similar spectrum of activity in enz ymatic and cellular
(§3) levels. Both of them have the ability to inhibit Wnt/β -catenin si gnalin g. However, in […]

DLK = target: T19, DLK (Homo sapiens, UniProt Q12852); assay: KINOMEscan kinase binding assay (Kd); conditions: Table S1
T19 sequence (Q12852 1-859): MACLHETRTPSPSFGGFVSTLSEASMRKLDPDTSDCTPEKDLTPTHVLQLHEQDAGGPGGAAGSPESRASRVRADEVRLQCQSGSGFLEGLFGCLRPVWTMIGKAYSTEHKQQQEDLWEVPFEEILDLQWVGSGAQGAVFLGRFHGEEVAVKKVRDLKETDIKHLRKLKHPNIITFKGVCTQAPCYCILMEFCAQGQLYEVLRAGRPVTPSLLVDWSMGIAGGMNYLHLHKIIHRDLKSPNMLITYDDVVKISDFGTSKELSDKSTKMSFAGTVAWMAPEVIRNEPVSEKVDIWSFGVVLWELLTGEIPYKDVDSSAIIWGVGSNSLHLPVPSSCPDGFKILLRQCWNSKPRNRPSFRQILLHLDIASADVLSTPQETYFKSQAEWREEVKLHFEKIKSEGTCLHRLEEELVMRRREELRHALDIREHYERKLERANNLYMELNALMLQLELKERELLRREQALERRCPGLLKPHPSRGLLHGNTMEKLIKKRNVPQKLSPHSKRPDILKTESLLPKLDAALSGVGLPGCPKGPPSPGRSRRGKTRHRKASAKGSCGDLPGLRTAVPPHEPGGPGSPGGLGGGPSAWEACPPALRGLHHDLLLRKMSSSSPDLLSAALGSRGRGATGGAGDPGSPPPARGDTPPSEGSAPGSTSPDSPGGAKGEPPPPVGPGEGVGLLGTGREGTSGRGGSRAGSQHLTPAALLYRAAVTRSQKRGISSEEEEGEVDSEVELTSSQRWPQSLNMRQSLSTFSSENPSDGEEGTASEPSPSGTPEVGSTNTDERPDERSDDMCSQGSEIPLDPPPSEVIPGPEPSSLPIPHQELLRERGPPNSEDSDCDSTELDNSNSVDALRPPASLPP
Description: as §1, §2, §3

ERBB4 = target: T20, ERBB4 (Homo sapiens, UniProt Q15303); assay: KINOMEscan kinase binding assay (Kd); conditions: Table S1
T20 construct: purchased DiscoveRx KINOMEscan (Ambit Biosciences)
Description: as §1, §2, §3

ERK = assay: KINOMEscan kinase binding assay (Kd); conditions: Table S1
Description: as §1, §2, §3

ERN1 = ERN1 (Homo sapiens, UniProt O75460); assay: KINOMEscan kinase binding assay (Kd); conditions: Table S1
Chain of ERN1 (O75460 19-977): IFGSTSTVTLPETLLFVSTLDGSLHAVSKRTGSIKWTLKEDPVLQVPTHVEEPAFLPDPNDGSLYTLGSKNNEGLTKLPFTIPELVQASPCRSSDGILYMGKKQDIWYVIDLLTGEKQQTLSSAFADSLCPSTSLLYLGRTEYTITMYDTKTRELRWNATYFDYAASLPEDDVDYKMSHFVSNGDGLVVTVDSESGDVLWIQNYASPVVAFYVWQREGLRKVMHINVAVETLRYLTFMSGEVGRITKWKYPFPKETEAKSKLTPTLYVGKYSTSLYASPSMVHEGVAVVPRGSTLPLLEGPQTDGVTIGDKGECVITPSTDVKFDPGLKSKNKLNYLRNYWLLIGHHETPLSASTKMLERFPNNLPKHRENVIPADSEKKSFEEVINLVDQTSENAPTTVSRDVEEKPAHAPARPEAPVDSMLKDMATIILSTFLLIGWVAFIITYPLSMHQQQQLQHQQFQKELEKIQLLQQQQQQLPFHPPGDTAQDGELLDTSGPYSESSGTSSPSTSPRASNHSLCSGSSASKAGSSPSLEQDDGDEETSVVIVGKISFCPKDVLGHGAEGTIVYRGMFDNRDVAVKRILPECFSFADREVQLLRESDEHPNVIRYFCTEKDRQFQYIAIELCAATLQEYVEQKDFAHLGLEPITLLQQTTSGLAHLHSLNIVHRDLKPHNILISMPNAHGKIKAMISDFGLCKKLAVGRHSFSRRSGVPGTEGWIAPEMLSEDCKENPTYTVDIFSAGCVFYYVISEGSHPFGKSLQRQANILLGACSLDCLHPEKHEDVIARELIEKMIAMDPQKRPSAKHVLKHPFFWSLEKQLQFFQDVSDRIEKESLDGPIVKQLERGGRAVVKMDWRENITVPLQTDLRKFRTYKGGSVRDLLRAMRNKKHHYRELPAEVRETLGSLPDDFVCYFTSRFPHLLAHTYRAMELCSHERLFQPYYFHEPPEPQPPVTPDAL
Description: as §1, §2, §3

IGF1R = target: T21, IGF1R (Homo sapiens, UniProt P08069); assay: KINOMEscan kinase binding assay (Kd); conditions: Table S1
T21 construct: DNA tag (qPCR read-out); purchased Ambit Biosciences (KINOMEscan service)
T21 sequence (P08069 31-1367): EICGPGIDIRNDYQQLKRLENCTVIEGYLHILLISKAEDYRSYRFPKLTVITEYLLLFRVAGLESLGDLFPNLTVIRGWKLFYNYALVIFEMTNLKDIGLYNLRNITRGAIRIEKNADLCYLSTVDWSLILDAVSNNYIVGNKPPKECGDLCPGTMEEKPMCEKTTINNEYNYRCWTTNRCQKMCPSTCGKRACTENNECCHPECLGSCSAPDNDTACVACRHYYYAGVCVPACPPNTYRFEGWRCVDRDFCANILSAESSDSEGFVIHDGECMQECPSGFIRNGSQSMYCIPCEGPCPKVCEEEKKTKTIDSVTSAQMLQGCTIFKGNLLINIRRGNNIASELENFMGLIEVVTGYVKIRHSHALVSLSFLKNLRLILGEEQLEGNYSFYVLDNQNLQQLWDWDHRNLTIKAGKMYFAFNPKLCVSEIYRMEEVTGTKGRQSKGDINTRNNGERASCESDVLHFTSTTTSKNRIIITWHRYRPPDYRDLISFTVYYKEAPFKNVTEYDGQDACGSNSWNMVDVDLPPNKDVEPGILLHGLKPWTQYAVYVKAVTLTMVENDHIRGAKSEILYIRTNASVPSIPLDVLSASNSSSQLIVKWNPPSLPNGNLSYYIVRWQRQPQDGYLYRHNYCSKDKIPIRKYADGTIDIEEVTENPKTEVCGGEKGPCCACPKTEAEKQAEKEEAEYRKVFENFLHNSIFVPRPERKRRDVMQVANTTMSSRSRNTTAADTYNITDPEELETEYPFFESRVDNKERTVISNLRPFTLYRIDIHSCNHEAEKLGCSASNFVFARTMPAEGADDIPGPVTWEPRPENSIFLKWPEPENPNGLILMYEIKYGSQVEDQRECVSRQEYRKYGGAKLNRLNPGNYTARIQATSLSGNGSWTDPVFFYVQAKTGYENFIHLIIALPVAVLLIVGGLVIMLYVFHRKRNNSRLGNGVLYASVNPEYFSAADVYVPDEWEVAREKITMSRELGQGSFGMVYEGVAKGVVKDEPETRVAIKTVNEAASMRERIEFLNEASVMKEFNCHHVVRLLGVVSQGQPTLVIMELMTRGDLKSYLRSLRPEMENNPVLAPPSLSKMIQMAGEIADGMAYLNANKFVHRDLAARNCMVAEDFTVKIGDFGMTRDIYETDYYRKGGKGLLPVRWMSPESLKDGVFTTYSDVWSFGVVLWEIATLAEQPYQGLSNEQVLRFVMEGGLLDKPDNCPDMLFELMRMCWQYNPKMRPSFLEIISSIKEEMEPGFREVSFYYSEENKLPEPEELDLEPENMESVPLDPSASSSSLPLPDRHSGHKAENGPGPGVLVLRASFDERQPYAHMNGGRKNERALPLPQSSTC
Description: as §1, §2, §3

PAK2 = target: T22, PAK2 (Homo sapiens, UniProt Q13177); assay: KINOMEscan kinase binding assay (Kd); conditions: Table S1
T22 construct: purchased DiscoveRx KINOMEscan (Ambit Biosciences)
T22 sequence (Q13177 whole entry): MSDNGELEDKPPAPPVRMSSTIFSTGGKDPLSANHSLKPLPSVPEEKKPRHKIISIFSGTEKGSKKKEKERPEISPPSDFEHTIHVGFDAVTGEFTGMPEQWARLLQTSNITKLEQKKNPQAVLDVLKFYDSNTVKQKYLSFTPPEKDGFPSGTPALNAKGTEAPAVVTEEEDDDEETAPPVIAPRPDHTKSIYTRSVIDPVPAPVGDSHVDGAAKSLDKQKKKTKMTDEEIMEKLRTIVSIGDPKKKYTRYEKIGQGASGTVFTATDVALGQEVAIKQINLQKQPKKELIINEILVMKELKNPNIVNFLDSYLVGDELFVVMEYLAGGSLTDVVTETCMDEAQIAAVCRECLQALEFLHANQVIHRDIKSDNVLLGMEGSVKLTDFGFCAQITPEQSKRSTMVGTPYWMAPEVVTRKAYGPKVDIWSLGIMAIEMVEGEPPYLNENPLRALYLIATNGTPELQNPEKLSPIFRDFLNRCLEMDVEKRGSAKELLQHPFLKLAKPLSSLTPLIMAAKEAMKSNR
Description: as §1, §2, §3

## CC(C)(C)c1cc(NC(=O)Nc2ccc(Oc3ncnc4[nH]ncc34)c(F)c2)no1 [SKLB-677, 1-(4-(1H-pyrazolo[3,4-d]pyrimidin-4-yloxy)-3-fluorophenyl)-3-(5-tert-butylisoxazol-3-yl)urea]
[1]
  remaining binding at 10 µM: 3.3%
CAMK1D
  remaining binding at 10 µM: 35%
CLK1
  remaining binding at 10 µM: 5.8%
DYRK2
  remaining binding at 10 µM: 34%
EGFR(L861Q)
  remaining binding at 10 µM: 46%
EPHA8
  remaining binding at 10 µM: 0.1%
MAPKAPK2
  remaining binding at 10 µM: 100%
PAK7
  remaining binding at 10 µM: 100%
PDGFRB
  remaining binding at 10 µM: 0%
PFTAIRE2
  remaining binding at 10 µM: 0.85%
PIK3CA(H1047Y)
  remaining binding at 10 µM: 100%
RIOK3
  remaining binding at 10 µM: 100%
RIPK2
  remaining binding at 10 µM: 0.75%
SGK
  remaining binding at 10 µM: 29%
STK36
  remaining binding at 10 µM: 97%
PDGFRβ
  Kd: 0.0027 µM
PLK2
  Kd: > 10 µM
CHEK1
  Kd: > 10 µM
DLK
  Kd: > 10 µM
ERBB4
  Kd: > 10 µM
ERK
  Kd: > 10 µM
ERN1
  Kd: > 10 µM
IGF1R
  Kd: > 10 µM
PAK2
  Kd: > 10 µM

Source: publication PMC4620497 (Scientific Reports, 2015)
